Patent US20250136997A1, “COMPOSITIONS FOR SEQUESTERING ISOAMYL AMINE AND METHODS OF USE THEREFOR” (University of Louisville Research Foundation, Inc., priority 2023, published 2025)

Tests used:
microglial cells [1] = assay: Western blot of cleaved caspase-3 and cleaved PARP in ex vivo cultured microglial cells; type: cell-based, mouse
Experimental: Isolation of microglia, neuron, astrocytes, and oligodendrocytes from the brain. Mice were anaesthetized with a mixture of ketamine (16%) and xylazine (3%) by intraperitoneal injection and then sacrificed under basal conditions by transcardial perfusion with perfusion buffer (Ca^2+/Mg^2+ free HBSS containing 0.5 mM EGTA, 10 mM HEPES and 4.2 mM NaHCO3; pH 7.2). The perfused brain was removed and gently mechanically disaggregated with tweezers in dissociation buffer (HBSS containing 10 mM HEPES and 4.2 mM NaHCO3 supplemented with Type I collagenase (0.05%), Dispase II (25 mg/ml), DNase I (2.5 mg/ml), trypsin inhibitor ([…]); pH 7.5) followed by incubation at 37° C. for 1 hour. The tissue homogenate was centrifuged at 1,350×g for 5 minutes at 4° C. For the isolation of microglia, the digestion enzymes in the tissue homogenate were inactivated by addition of PBS/EDTA containing 5% fetal bovine serum (FBS) and the digested brain bits were triturated gently, passed over a 100 µm filter (Fisher Scientific) and centrifuged. […] The pellet of cells was rinsed in PBS. Any contaminating red blood cells (RBC) were lysed using RBC lysis buffer (Sigma) according to the manufacturer's instructions, rinsed twice with PBS and passed through a 40 µm filter (Fisher Scientific). Cells were then stained for CD11b and CD45 for flow cytometry analysis. The astrocytes were isolated from mouse cortices (n=10). The tissue homogenate was centrifuged at 800×g for 10 minutes at 4° C. following digestion with type II collagenase (1 mg/ml) and type I DNase (10 U/ml) in DMEM for 10 minutes. The cells pelleted by centrifugation were plated in a 100 mm culture dish coated with poly-L-ornithine (Sigma). For the isolation of oligodendrocytes, the glial cells above were cultured in specific media containing T3 and T4 (0.5 mM) as well as platelet-derived growth factor (PDGF, 10 ng/ml) to promote the growth of the different cell types. Isolated glial cells were labelled with the following antibodies against surface markers: CD11b (Biolegend, Cat #101206), CD45 (Biolegend, Cat #147710), GFAP (Biolegend, Cat #837508) and MOG (Biorbyt, Cat #orb412341-FITC). Cells positive for CD11b and CD45Med were identified as microglia. Cells positive for GFAP and negative for CD45 and CD11b were identified as astrocytes. Cells sorted with MOG+CD11b− were identified as oligodendrocytes. Neurons were isolated from mouse brain using the Pierce Primary Neuron Isolation Kit (Thermo Scientific, Cat #88280). Briefly, the tissue homogenate from freshly dissected cortexes was suspended in an equal volume of ice cold HBSS (Sigma) and replaced with Neuronal Isolation Enzyme (with papain) in a 37° C. incubator for 30 minutes. After washing with HBSS, the tissue was cultured in a poly-D-lysine coated plate with Neuronal Culture Medium.
Western blotting. Cells were treated as indicated in individual Figure legends and whole cell extracts (WCE) were prepared in the radioimmunoprecipitation assay (RIPA) buffer (Sigma) with addition of protease and phosphatase inhibitors (Roche). Proteins were separated by 10% SDS-PAGE and transferred to polyvinylidene difluoride (PVDF) membranes (Bio-Rad Laboratories, Inc., Hercules, CA). Dual color precision protein MW markers (BioRad) were separated in parallel. Antibodies were purchased as follows: cleaved-caspase-3 (ab214430), cleaved PARP (ab203467) and GAPDH (ab9657, Abcam) from Abcam; S100A8 (47310) and S100a9 (72590) from Cell Signaling; and Ltf (GTX81085) from GeneTex. The secondary antibodies conjugated to Fluors Alex-488 (A32723) or Alex-594 (A11012) were purchased from Invitrogen (Eugene, OR). The bands were visualized on the Odyssey Imager (LiCor Inc, Lincoln, NE).

microglial cells [2] = assay: FACS analysis of apoptotic bodies (ABs) in supernatants of cultured microglial cells; type: cell-based, mouse; settings: microglial cells isolated from young mice
Experimental: Flow cytometry. Isolated cells were incubated with blocking solution (0.5% BSA/PBS) for 15 minutes at 4° C. For surface staining, cells were stained with various antibodies at room temperature for 1 hour and then washed with PBS. Washed cells were stained for 40 minutes at 4° C. with the appropriate fluorochrome-conjugated antibodies in PBS with 2% FBS. Data were acquired using a BD FACSCalibur flow cytometer (BD Biosciences, San Jose, CA) and analyzed using FlowJo software (Tree Star Inc., Ashland, OR). The following antibodies purchased from Biolegend were used for flow cytometry: anti-CD11b (101208), anti-CD45 (103112) and FITC Annexin V (640945). For the ABs analysis, extracellular vesicles were collected. To recognize the ABs, as described previously, size gates set based on forward scatter (FSC) were applied in combination with Annexin V staining. From these vesicles total ABs were detected using Annexin V staining events.
Isolation of apoptotic bodies. Apoptotic bodies (ABs) were isolated from culture supernatants as previously described. Briefly, cell culture medium was harvested and cells were removed by pelleting at 335×g for 10 minutes. To remove cell-debris, supernatants were centrifuged at 1,000×g for 10 minutes, followed by another centrifugation at 2,000×g for 30 minutes to pellet ABs. Pelleted ABs were resuspended and washed with PBS.

[3] = Interaction of S100p1-G and metabolite: streptavidin pull-down from BV2 cells and LC-MS; type: cell-based, mouse; settings: cell lysates
Experimental: Interaction of S100p1-G and metabolite. Microglial BV2 cells (2×10^6) were transfected with biotinylated oligo S100p1-G or mutant using Lipofectamin RNAiMAX Reagent (Thermo Fisher) according to the manufacturer's instructions overnight at 37° C. […] of aged mouse fecal supernatant (from one-gram feces) was added into the cell growth medium. After six hours, the cells were collected in RIPA lysis buffer. […] of cell lysate was incubated with […] of DYNABEADS® Streptavidin beads (Thermo Fisher) at room temperature for 1 h. The bio-oligo complex was eluted with biotin (4 mg/ml)) in 25 mM Tris-HCL containing 0.3 M NaCl (PH 8.5) at 95° C. for 5 minutes. Metabolite analysis was performed with LC-MS.

[4] = HPLC analysis of IAA and CA in serum and cerebrospinal fluid (CSF) of mice; type: in vivo, mouse; settings: aged mice, intravenous oligo, twice a week for 2 months
[5] = Morris water maze (MWM) test; type: in vivo, mouse; settings: aged mice, intravenous, twice a week for 2 months
Experimental: Morris water maze (MWM) test. Mice were trained in a 122 cm diameter, 50 cm height open-field water maze with non-reflective interior surfaces. The pool water was filled with water maintained at 25±1° C. and mixed with non-toxic white tempera paint. Distinctive and extra-maze cues were marked on the wall at specific locations and were visible to the mice in the maze. Mice were removed from cages, placed into the water from quasi-random start points and allowed a maximum of 60 seconds to probe the escape platform. The inter interval of each trail remained for 15 seconds. For four consecutive days, four trials (training) were recorded each day with a final test on day 5 (FIG. 4A). Performance was evaluated by the mean escape latencies base on every training trial (Vorhees and Williams, 2006).

[6] = Single-strand gel shift (SSGS) assay; type: binding; settings: oligos (2 μM) incubated with IAA (10 μM), 15% PAGE
Experimental: Single-strand gel shift (SSGS) assay. To identify the metabolite binding site of S100A8, we synthesized a series of oligonucleotides (oligos) (Eurofins Genomics LLC, KY) specific to the response putative IAA binding site at the promoter region of S100A8. The oligos ([…]) were incubated with […] of IAA at 37° C. for 30 minutes following electrophoresis on a 15% native PAGE without SDS in 0.5×TBE buffer. The oligos were stained with ethidium bromide ([…]) and visualized under ultraviolet (UV) light.
Given induction of bacterial metabolite IAA causes the degeneration of microglia by elevation of S100A8 at both the transcription and protein level, we hypothesized that IAA might directly target the promoter of S100A8 and regulate the expression of S100A8. Studying the interaction of metabolites, particularly small molecules, with nucleic acid is challenging due to a lack of appropriate tags for the metabolites. Because of this challenge, we developed a strategy raising the possibility to investigate the interaction of small molecules and nucleic acid.
To test our hypothesis, we first synthesized short single-DNA strains (around 60 mer length each) whose sequences spanned the promoter of S100A8 (FIG. 13A and Table 5). The site and sequence of the promoter and transcription start site (TSS) were determined according to the entire mRNA (Accession #NC_000069.7 (90,576,378 . . . 90,577,341)) and genomic sequence (Accession #L76381) from the NCBI nucleic acid database (FIG. 13A). These DNA oligos (2 μM) were incubated with IAA (10 μM) following native PAGE analysis (FIG. 4A). […] To define the accurate binding site of IAA, we synthesized 10 mer length DNA oligos covering the sequence of S100p1 (Table 5). Unfortunately, the 10 mer length oligo lost the conformational mobility shift in PAGE (FIG. 13C). We then tested the mobility shift with 20 mer oligos. […]

[7] = Surface plasmon resonance (SPR) of biotin-labeled oligos with IAA; type: binding; settings: biotin labeled oligo on streptavidin sensor chip
Experimental: Surface plasmon resonance (SPR). To identify the binding activity of the metabolite IAA and S100A8 promoter sequence, SPR experiments were conducted on an OPENSPR™ (Nicoya, Lifesciences, CA). Experiments were performed on a streptavidin sensor (Nicoya, Lifesciences). SPR was run at a flow rate of 20 μl/min using HBS running buffer (20 mM HEPES, 150 mM NaCl, pH 7.4). First, the streptavidin sensor chip was cleaned with octyl β-D-glucopyranoside (40 mM) and CHAPS (20 mM). 200 μl of biotin-conjugated oligos (1 μg/ml, Table 5) were injected on the sensor chip for 10 minutes until a stable resonance was obtained. After immobilization of bio-oligo, the surface was blocked with BSA (3%) in running buffer. After a stable signal was obtained, IAA (10 nM) was run over the immobilized bio-oligo until a stable resonance was obtained. A negative control test was also performed by injecting IAA onto a blank sensor chip to check for non-specific binding. The sensograms were analyzed using TraceDrawer kinetic analysis software.

[8] = added to ex vivo cultured microglial cells from young mice

Molecule: C/C=C/C(=O)O [CA, crotonic acid]
- effect on the microglia (cleaved caspase-3) (microglial cells [1]; S100A8 deficient microglia cells): abolished
- cleaved caspase-3 (microglial cells [1]; [8]): increasing
- cleaved poly(-ADP-ribose) polymerase (PARP) (microglial cells [1]; [8]): increasing
- ABs released into the culture supernatants (microglial cells [2]): increase

Molecule: NCCCC(=O)O [GABA]
- metabolite within the Bio-S100p1-G complex (LC-MS) [3]: did not find

Molecule: NCCCC[C@H](N)C(=O)O [lysine]
- metabolite within the Bio-S100p1-G complex (LC-MS) [3]: did not find

Molecule: S100p1-G-Mut: CTGTATGCAA TTGGCCAAGC (SEQ ID NO: 9), mutant control oligo (DNA CTGTATGCAATTGGCCAAGC; DNA, backbone and methylation of C not given here; further chemistry not fully specified)
- IAA in CSF (HPLC) [4]: not seen
- memory and spatial learning (MWM) [5]: not seen

Molecule: S100p1: CTGTGGGCAG CTGGCAAGC TTTCCTCTATAAAAGCAGCTGACACTTAGCCTCACAT (SEQ ID NO: 7), −57 . . . −1 (DNA CTGTGGGCAGCTGGCCAAGCTTTCCTCTATAAAAGCAGCTGACACTTAGCCTCACAT; DNA, backbone and methylation of C not given here; further chemistry not fully specified)
- mobility shift on native PAGE after incubation with IAA [6]: mobility shifted
- interaction with IAA (SPR) [7]: targeted by IAA

Molecule: hS100A8p: AGCTGTGGGCAGCTGGCCAAGCCTAA (SEQ ID NO: 39), human S100A8 promoter oligo (DNA, backbone and methylation of C not given here; further chemistry not fully specified)
- mobility shift on native PAGE after incubation with IAA [6]: binds
